# Measured values from patent US12077503B2, “Substituted cyclic amides and their use as herbicides” (FMC CORPORATION, priority 2015, dated 2024).
# Tests used:
# Format in all cases: in vivo
# [1] = system: ragweed (common ragweed, Ambrosia elatior); assay: Test A postemergence; conditions: Ambrosia artemisiifolia, post-emergence, 240 h; for pest or weed control at 125 g/ha: 125 g ai/ha, postemergence, visual injury on 0 to 100 scale (0 no effect, 100 complete control), approx. 10 d, read-out: Ragweed plant response rating; for pest or weed control at 31 g/ha: Postemergence, 31 g ai/ha, visual injury after approx. 10 d, 0 to 100 scale, 0 no effect, 100 complete control, read-out: Plant response rating, Ragweed
# Method in brief: (§1)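 Greenhouse, ~10 d after spray; visual injury vs untreated controls, 0 = no effect, 100 = complete control. Preemergence: directed soil spray over planted seeds. Postemergence: plants 2–10 cm, 1–2 leaf stage. Loam/sand blend. Compound in non-phytotoxic solvent with surfactant.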
# [2] = system: barnyardgrass (Echinochloa crus-galli); assay: Test A postemergence; conditions: Echinochloa crus-galli, post-emergence, 240 h; for pest or weed control at 125 g/ha: 125 g ai/ha, postemergence, visual injury on 0 to 100 scale (0 no effect, 100 complete control), approx. 10 d, read-out: Barnyardgrass plant response rating; for pest or weed control at 31 g/ha: Postemergence, 31 g ai/ha, visual injury after approx. 10 d, 0 to 100 scale, 0 no effect, 100 complete control, read-out: Plant response rating, Barnyardgrass
# Method in brief: as §1
# [3] = system: giant foxtail (Setaria faberii); assay: Test A postemergence; conditions: Setaria faberi, post-emergence, 240 h; for pest or weed control at 125 g/ha: 125 g ai/ha, postemergence, visual injury on 0 to 100 scale (0 no effect, 100 complete control), approx. 10 d, read-out: Foxtail, Giant plant response rating; for pest or weed control at 31 g/ha: Postemergence, 31 g ai/ha, visual injury after approx. 10 d, 0 to 100 scale, 0 no effect, 100 complete control, read-out: Plant response rating, Foxtail, Giant
# Method in brief: as §1
# corn (Zea mays) = assay: Test A postemergence; conditions: Zea mays, post-emergence, 240 h; for plant injury at 125 g/ha: 125 g ai/ha, postemergence, visual injury on 0 to 100 scale (0 no effect, 100 complete control), approx. 10 d, read-out: Corn plant response rating; for Corn plant response rating (crop injury, 0 = no effect, 100 = complete kill) at 31 g/ha: Postemergence, 31 g ai/ha, visual injury after approx. 10 d, 0 to 100 scale, 100 complete control
# Method in brief: as §1
# [4] = system: blackgrass (Alopecurus myosuroides); assay: Test A postemergence; conditions: Alopecurus myosuroides, post-emergence, 240 h; for pest or weed control at 125 g/ha: 125 g ai/ha, postemergence, visual injury on 0 to 100 scale (0 no effect, 100 complete control), approx. 10 d, read-out: Blackgrass plant response rating; for pest or weed control at 31 g/ha: Postemergence, 31 g ai/ha, visual injury after approx. 10 d, 0 to 100 scale, 0 no effect, 100 complete control, read-out: Plant response rating, Blackgrass
# Method in brief: as §1
# Kochia (Kochia scoparia) [5] = assay: Test A postemergence; conditions: Bassia scoparia, post-emergence, 240 h; for pest or weed control at 125 g/ha: 125 g ai/ha, postemergence, visual injury on 0 to 100 scale (0 no effect, 100 complete control), approx. 10 d, read-out: Kochia plant response rating; for pest or weed control at 31 g/ha: Postemergence, 31 g ai/ha, visual injury after approx. 10 d, 0 to 100 scale, 0 no effect, 100 complete control, read-out: Plant response rating, Kochia
# Method in brief: as §1
# [6] = system: Galium (catchweed bedstraw, Galium aparine); assay: Test A postemergence; conditions: Galium, post-emergence, 240 h; for pest or weed control at 125 g/ha: 125 g ai/ha, postemergence, visual injury on 0 to 100 scale (0 no effect, 100 complete control), approx. 10 d, read-out: Galium plant response rating; for pest or weed control at 31 g/ha: Postemergence, 31 g ai/ha, visual injury after approx. 10 d, 0 to 100 scale, 0 no effect, 100 complete control, read-out: Plant response rating, Galium
# Method in brief: as §1
# [7] = system: pigweed (Amaranthus retroflexus); assay: Test A postemergence; conditions: Amaranthus retroflexus, post-emergence, 240 h; for pest or weed control at 125 g/ha: 125 g ai/ha, postemergence, visual injury on 0 to 100 scale (0 no effect, 100 complete control), approx. 10 d, read-out: Pigweed plant response rating; for pest or weed control at 31 g/ha: Postemergence, 31 g ai/ha, visual injury after approx. 10 d, 0 to 100 scale, 0 no effect, 100 complete control, read-out: Plant response rating, Pigweed
# Method in brief: as §1
# [8] = system: ryegrass, Italian (Italian ryegrass, Lolium multiflorum); assay: Test A postemergence; conditions: Lolium multiflorum, post-emergence, 240 h; for pest or weed control at 125 g/ha: 125 g ai/ha, postemergence, visual injury on 0 to 100 scale (0 no effect, 100 complete control), approx. 10 d, read-out: Ryegrass, Italian plant response rating; for pest or weed control at 31 g/ha: Postemergence, 31 g ai/ha, visual injury after approx. 10 d, 0 to 100 scale, 0 no effect, 100 complete control, read-out: Plant response rating, Ryegrass, Italian
# Method in brief: as §1
# [9] = system: wheat (Triticum aestivum); assay: Test A postemergence; conditions: Triticum aestivum, post-emergence, 240 h; for plant injury at 125 g/ha: 125 g ai/ha, postemergence, visual injury on 0 to 100 scale (0 no effect, 100 complete control), approx. 10 d, read-out: Wheat plant response rating; for plant injury at 31 g/ha: Postemergence, 31 g ai/ha, visual injury after approx. 10 d, 0 to 100 scale, 0 no effect, 100 complete control, read-out: Plant response rating, Wheat
# Method in brief: as §1
# [10] = system: barnyardgrass (Echinochloa crus-galli); assay: Test B flooded paddy test; conditions: Echinochloa crus-galli, 250 g ai/ha, Flood; 0 to 100 scale where 0 is no effect and 100 is complete control; read-out: Barnyardgrass plant response rating
# Method in brief: (§2)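 Flooding to 3 cm over soil accompanied treatment, which consisted of adding compound to the standing water around 2-leaf plants; depth was then maintained. Visual assessment versus controls followed at 13 to 15 d (scale 0–100, 0 meaning no effect).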
# rice (Oryra sativa) = assay: Test B flooded paddy test; conditions: Oryza sativa, 250 g ai/ha, Flood; 0 to 100 scale where 0 is no effect and 100 is complete control; read-out: Rice plant response rating
# Method in brief: as §2
# [11] = system: sedge, umbrella (small-flower umbrella sedge, Cyperus difformis); assay: Test B flooded paddy test; conditions: Cyperus difformis, 250 g ai/ha, Flood; 0 to 100 scale where 0 is no effect and 100 is complete control; read-out: Sedge, Umbrella plant response rating
# Method in brief: as §2
# [12] = system: ducksalad (Heteranthera limosa); assay: Test B flooded paddy test; conditions: Heteranthera limosa, 250 g ai/ha, Flood; 0 to 100 scale where 0 is no effect and 100 is complete control; read-out: Ducksalad plant response rating
# Method in brief: as §2
# [13] = system: ragweed (common ragweed, Ambrosia elatior); assay: Test A preemergence; conditions: Ambrosia artemisiifolia, pre-emergence, 240 h, 0 to 100 scale where 0 is no effect and 100 is complete control, read-out: Ragweed plant response rating; for pest or weed control at 31 g/ha: 31 g ai/ha, Preemergence; for pest or weed control at 125 g/ha: 125 g ai/ha, preemergence, approx. 10 d
# Method in brief: as §1
# [14] = system: barnyardgrass (Echinochloa crus-galli); assay: Test A preemergence; conditions: Echinochloa crus-galli, pre-emergence, 240 h, 0 to 100 scale where 0 is no effect and 100 is complete control, read-out: Barnyardgrass plant response rating; for pest or weed control at 31 g/ha: 31 g ai/ha, Preemergence; for pest or weed control at 125 g/ha: 125 g ai/ha, preemergence, approx. 10 d
# Method in brief: as §1
# [15] = system: giant foxtail (Setaria faberii); assay: Test A preemergence; conditions: Setaria faberi, pre-emergence, 240 h, 0 to 100 scale where 0 is no effect and 100 is complete control, read-out: Foxtail, Giant plant response rating; for pest or weed control at 31 g/ha: 31 g ai/ha, Preemergence; for pest or weed control at 125 g/ha: 125 g ai/ha, preemergence, approx. 10 d
# Method in brief: as §1
# Kochia (Kochia scoparia) [16] = assay: Test A preemergence; conditions: Bassia scoparia, pre-emergence, 240 h, 0 to 100 scale where 0 is no effect and 100 is complete control, read-out: Kochia plant response rating; for pest or weed control at 31 g/ha: 31 g ai/ha, Preemergence; for pest or weed control at 125 g/ha: 125 g ai/ha, preemergence, approx. 10 d
# Method in brief: as §1
# [17] = system: pigweed (Amaranthus retroflexus); assay: Test A preemergence; conditions: Amaranthus retroflexus, pre-emergence, 240 h, 0 to 100 scale where 0 is no effect and 100 is complete control, read-out: Pigweed plant response rating; for pest or weed control at 31 g/ha: 31 g ai/ha, Preemergence; for pest or weed control at 125 g/ha: 125 g ai/ha, preemergence, approx. 10 d
# [18] = system: ryegrass, Italian (Italian ryegrass, Lolium multiflorum); assay: Test A preemergence; conditions: Lolium multiflorum, pre-emergence, 240 h, 0 to 100 scale where 0 is no effect and 100 is complete control, read-out: Ryegrass, Italian plant response rating; for pest or weed control at 31 g/ha: 31 g ai/ha, Preemergence; for pest or weed control at 125 g/ha: 125 g ai/ha, preemergence, approx. 10 d
# Method in brief: as §1
Compound,pest or weed control at 125 g/ha [1],pest or weed control at 31 g/ha [1],pest or weed control at 125 g/ha [2],pest or weed control at 31 g/ha [2],pest or weed control at 125 g/ha [3],pest or weed control at 31 g/ha [3],plant injury at 125 g/ha (corn (Zea mays)),"Corn plant response rating (crop injury, 0 = no effect, 100 = complete kill) at 31 g/ha (corn (Zea mays))",pest or weed control at 125 g/ha [4],pest or weed control at 31 g/ha [4],pest or weed control at 125 g/ha (Kochia (Kochia scoparia) [5]),pest or weed control at 31 g/ha (Kochia (Kochia scoparia) [5]),pest or weed control at 125 g/ha [6],pest or weed control at 31 g/ha [6],pest or weed control at 125 g/ha [7],pest or weed control at 31 g/ha [7],pest or weed control at 125 g/ha [8],pest or weed control at 31 g/ha [8],plant injury at 125 g/ha [9],plant injury at 31 g/ha [9],further results
CN1C[C@H](c2csc3c2CCOC3)[C@@H](C(=O)Nc2ccc(F)c(F)c2F)C1=O [Compound 1077],0%,0%,90%,70%,90%,50%,10%,0%,30%,0%,0%,0%,70%,20%,0%,0%,20%,0%,0%,0%,pest or weed control at 250 g/ha [10]: 85%; pest or weed control at 250 g/ha (rice (Oryra sativa)): 15%; pest or weed control at 250 g/ha [11]: 0%; pest or weed control at 250 g/ha [12]: 90%; pest or weed control at 31 g/ha [13]: 0%; pest or weed control at 125 g/ha [13]: 0%; pest or weed control at 31 g/ha [14]: 80%; pest or weed control at 125 g/ha [14]: 100%; pest or weed control at 31 g/ha [15]: 100%; pest or weed control at 125 g/ha [15]: 100%; pest or weed control at 31 g/ha (Kochia (Kochia scoparia) [16]): 0%; pest or weed control at 125 g/ha (Kochia (Kochia scoparia) [16]): 20%; pest or weed control at 31 g/ha [17]: 0%; pest or weed control at 125 g/ha [17]: 0%; pest or weed control at 31 g/ha [18]: 0%; pest or weed control at 125 g/ha [18]: 10%
CN1C[C@H](c2csc3c2CCOC3)[C@@H](C(=O)Nc2ccccc2S(C)(=O)=O)C1=O [Compound 1078],0%,0%,10%,0%,0%,0%,0%,0%,0%,0%,0%,0%,0%,0%,0%,0%,0%,0%,0%,0%,pest or weed control at 250 g/ha [10]: 30%; pest or weed control at 250 g/ha (rice (Oryra sativa)): 0%; pest or weed control at 250 g/ha [11]: 0%; pest or weed control at 250 g/ha [12]: 0%; pest or weed control at 31 g/ha [13]: 0%; pest or weed control at 125 g/ha [13]: 0%; pest or weed control at 31 g/ha [14]: 0%; pest or weed control at 125 g/ha [14]: 0%; pest or weed control at 31 g/ha [15]: 0%; pest or weed control at 125 g/ha [15]: 0%; pest or weed control at 31 g/ha (Kochia (Kochia scoparia) [16]): 0%; pest or weed control at 125 g/ha (Kochia (Kochia scoparia) [16]): 0%; pest or weed control at 31 g/ha [17]: 0%; pest or weed control at 125 g/ha [17]: 0%; pest or weed control at 31 g/ha [18]: 0%; pest or weed control at 125 g/ha [18]: 0%
